Where two headings read alike, the source gives them in different places.

One may read the Ki as the equilibrium dissociation constant of an inhibitor or competing ligand from its target. The term IC50 denotes the concentration that gives 50% inhibition.

The target in assay [1] is T1, recombinant MaltOBP1 (Monochamus alternatus, UniProt A6YIT8). As to the kind of experiment: Competitive ligand-binding assay (1-NPN displacement). As to conditions: for binding affinity to MaltOBP1 (in words): fluorescence competitive binding; for Ki: Ki = [IC50]/(1 + [1-NPN]/K1-NPN), read-out: Ki (dissociation constant). Here is the method:
(§1) Ligand-binding assays were performed on a HORIBA FluoroMax®-4 Fluorescence spectrophotometer (HORIBA Scientific, United States) with a 1 cm light path quartz cuvette and 5 nm slits for both excitation and emission. The purified MaltOBP1 protein, served in the 1 cm light path quartz cuvette, was titrated with 1 nM 1-N-phenyl naphtylamine (1-NPN, Sigma, Riedstr, Steinheim, Germany) solution in methanol. The fluorescence intensity at the maximum emission wavelength of about 337 nm was linearized using the Scatchard equation ([Sideris et al., 1992]), and then binding affinity for MaltOBP1/1-NPN was calculated.
To assess the binding affinities of ligands to MaltOBP1, a mixture of 1-NPN and MaltOBP1 protein was titrated with 1 μM of each ligand dissolved in methanol. IC50 was obtained by data linearization, and the dissociation constant (Ki) was calculated following the equation: Ki = [IC50]/(1 + [1-NPN]/K1–NPN), where [1-NPN] is the free concentration of 1-NPN and K1–NPN is the dissociation constant of the protein/1-NPN complex ([Campanacci et al., 2001]), which was calculated from the binding curve using GraphPad Prism 5.01 (GraphPad Software, Inc.).

Assay [2] deals with T1, recombinant MaltOBP1. The assay can be described thus: 1-NPN fluorescence binding assay (Scatchard). As to conditions: fluorescent probe titration, Scatchard linearization; read-out: dissociation constant of MaltOBP1/1-NPN. How it is done: as §1
The mark [3] stands for this setting: competitive displacement of 1-NPN from MaltOBP1, ligands in methanol, read-out: IC50.

T1 sequence (A6YIT8 entry or part of it): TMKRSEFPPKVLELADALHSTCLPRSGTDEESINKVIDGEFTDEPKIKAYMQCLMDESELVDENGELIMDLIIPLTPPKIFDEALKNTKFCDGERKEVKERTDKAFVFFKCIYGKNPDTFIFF

As for `CC1=CCC2C(C1)C2(C)C` (single isomer, unassigned; (+)) [(+)-3-carene], the “binding affinity to MaltOBP1 (in words)” value in assay [1] is on record as “no binding affinity”.
Turning to `c1ccc(Nc2cccc3ccccc23)cc1` [1-NPN, 1-N-phenyl naphtylamine], the Kd in assay [2] turned out to be 3.86 µM.
`C=C(C)[C@H]1CC=C(C)CC1` [(R)-(+)-limonene]: in assay [1], the Ki came to 12.8 µM and the “binding affinity to MaltOBP1 (in words)” value was “high binding affinity”. For the same molecule, in assay [1] (setting [3]), the IC50 is 21.7 µM.
The like results for `CC1=CC(=O)[C@H]2C[C@@H]1C2(C)C` [(−) -verbenone] were, in that order, 37.4 µM, “high binding affinity” and 63.1 µM.
In the case of `C=C1CC/C=C(\C)CC[C@@H]2[C@@H]1CC2(C)C` [(−)-trans-caryophyllene], in assay [1], the IC50 was found to be 7.01 µM and the “binding affinity to MaltOBP1 (in words)” value is on record as “high binding affinity”.
As for `C=C1[C@H]2CC[C@H](C2)C1(C)C` [comphene, Comphene], the “binding affinity to MaltOBP1 (in words)” value in assay [1] was “no binding affinity”.
Same read-out and setting: to `C=CC(=C)CCC=C(C)C` [myrcene] belongs “no binding affinity”.
As to `C=C1CCC2CC1C2(C)C` (stereo not drawn) [β- Pinene], in assay [1], the IC50 came to 39.3 µM and the “binding affinity to MaltOBP1 (in words)” value is given as “high binding affinity”.
On to (+)-α-Pinene, for which, in assay [1], the Ki is 18.7 µM and the “binding affinity to MaltOBP1 (in words)” value is “high binding affinity”. The IC50 in assay [1] (setting [3]) was determined as 31.5 µM.
